Measured values reported in patent US11318141B2, “Methods and compositions related to STK1-targeted small molecules as antibiotic resistance breakers” (Ohio State Innovation Foundation, priority 2017, dated 2022).

How the values were obtained:
[1] = system: S. aureus MW2-WT, MW2ΔSTK1 and MW2ΔSTP1 colonies; experiment: Colony hemolysis pattern on TSA blood agar plates; format: cell-based, Staphylococcus aureus; conditions: 50 μM Inh2-B1, MW2-WT, MW2ΔSTK1 or MW2ΔSTP1
Source text: See the increased hemolysis around the colonies of the MW2ΔSTK1 mutant and absence of hemolysis around those of MW2ΔSTP1 mutant as depicted in the enlarged portion of certain representative colonies shown under each panel of the strain. A one centimeter bar is included to facilitate the determination of the relative size of colonies and corresponding hemolytic zones around them.

[2] = system: S. pyogenes SP-STK / SP-STKK; experiment: Solid-phase ATP affinity chromatography, elution of bound kinase by inhibitor, Western blot; format: binding; conditions: purified recombinant protein
Description: (§1) An overnight culture of S. aureus MW2 strain was centrifuged, and the resulting bacterial pellet was resuspended in lysostaphin digestion buffer (50 mM Tris/HCl buffer, pH 7.5, containing 5 μg/ml DNAse/RNAse and protease inhibitor cocktail) in 1/10 the volume of the original culture volume. The latter was then subjected to lysostaphin treatment (15 U/ml). The lysostaphin digest was sonicated (5 sec pulse at every 10 sec for 10 min at 50% of 130 W, […]), and the debris free whole cell lysate was obtained after centrifugation (10.000×g, 10 min, 4° C.). […] The column was then washed with ten column volumes of binding buffer. Subsequently, the bound proteins were eluted with the 10-column volume of buffer containing 50 μM Inh-2 and Inh2-B1. S. aureus crude lysate, the last fraction of the column washing step, and eluted fractions were resolved by SDS-PAGE and electroblotted onto a PVDF membrane. […] A similar experiment was performed using S. pyogenes whole cell lysates obtained from phage lysin-digested S. pyogenes M1T1 strain using the anti-SP-STK antibody as described previously using to determine the specificity of the inhibitor for S. aureus STK1.

S. aureus STK1 / STKK1 = experiment: as above; format: binding
Description: as §1

Detroit 562 cells = experiment: MTT cell proliferation assay; format: cell-based, human; conditions: even at 100 μM, 24 h
Description: (§2) Impact of Inh2-B1 on cell proliferation was determined by MTT (3-[4,5-dimethylthiazol-2-yl]-2,5 diphenyl tetrazolium bromide)-based assay using Roche Colorimetric proliferation assay kit. Cell lines mentioned above were grown in 96-well tissue culture plates in the CO2 incubator at 37° C. The cells were treated with Inh2-B1 as described above in a final volume of 100 μl for 24 h. At the end of incubation, tissue culture medium from each well was removed and replaced with fresh 100 μl of the medium containing MTT solution (0.5 mg/ml) and further incubated for 4 h. The purple color of formazan salt crystals formed in each well was solubilized with the addition of 100 μl of 10% SDS solution in 0.01M HCl and further incubating for 10-12 h. The solubilized formazan product in each well was spectrophotometrically analyzed using a microtiter plate reader (Molecular Devices, 570 nm). Absorbance values of wells containing MTT reagents without cells and the untreated cultured cells with MTT reagents were considered as the background and negative controls. All tests were performed in triplicate wells. The average background value obtained from 10 wells was subtracted from the test values, and the corrected values obtained from untreated and treated cells were statistically analyzed by Student's test. P<0.05 was treated as a significant difference.

BEAS-2B cells = experiment: MTT cell proliferation assay; format: cell-based, human; conditions: 24 h
Description: as §2

[3] = system: cell wall hydrolase genes in S. aureus MW2-WT; experiment: qRT-PCR mRNA expression of cell wall hydrolase genes; format: cell-based, Staphylococcus aureus; conditions: treated MW2-WT vs untreated
Description: The late log phase-grown S. aureus strains MW2 wild-type, and isogenic ΔSTK1 and ΔSTP1 mutant strains, as well as S. aureus MW2 strain treated with 25 μM Inh2-B1 for 4 h, were subjected to lysostaphin treatment to obtain whole cell lysate. Total RNA from the resulting lysate was first extracted by TRIZOL™ (Invitrogen/Thermo) and treated with RNase-free DNaseI. High-quality total RNA (RIN>7.0, and 260/280 and 260/230 ratios >1.8) was then extracted by using RNA purification kit (Norgen, Canada) per manufacturer's instructions and confirmed by an Agilent 2100 Bioanalyzer (Agilent Technologies, Palo Alto, Calif.). The first-strand cDNA from the total RNA was generated, and relative mRNA concentration was quantitated using SYBR Green qRT-PCR master mix and specific primers, using a Light Cycler® 480 real-time PCR machine (Table 2). The results obtained for all samples (three biological replicates each in triplicates) were normalized to corresponding values of 16S rRNA. All results including relative fold-changes in the mRNA expression (mutant vs. wild-type or treated vs. nontreated) for individual genes were analyzed using Exor4 software (Roche Applied Science). Changes in expression ratios by more than 2-fold (up- or down-regulation) were considered as significant.

[4] = Stability in serum and body fluid; format: in vitro ADME
[5] = system: S. aureus MW2ΔSTK1 biofilms; experiment: Biofilm formation, crystal violet stain method; format: cell-based, Staphylococcus aureus; conditions: 25 μM, further 48 h

COC(=O)c1ccc2c(=O)[nH]c3c(C(=O)Nc4ccccc4)sc(=S)n3c2c1 [Inh2-B1, Methyl 5-oxo-3-(phenylcarbamoyl)-1-thioxo-4,5dihydro[1,3]thiazolo[3,4-a]quinazoline-8-carboxylate]
hemolysis pattern of colonies [1]: did not show any changes in the hemolysis pattern
elution of purified recombinant S. pyogenes SP-STKK from ATP-column [2]: not S. pyogenes SP-STKK protein
elution of STK1 bound to ATP-column, whole cell lysate of S. aureus MW2 (S. aureus STK1 / STKK1; eluted with 50 μM inhibitor, anti-STK1 immunoblot): presence of STK1
elution of purified recombinant S. aureus STKK1 from ATP-column (S. aureus STK1 / STKK1; purified recombinant protein): could elute only the S. aureus STKK1 protein
effect on cell proliferation (MTT) (Detroit 562 cells): did not affect cell proliferation
cell proliferation inhibition (MTT) (BEAS-2B cells; 50 μM): ~20%
cell proliferation inhibition (MTT) (BEAS-2B cells; 100 μM): ~40%
expression of cell wall hydrolase-encoding genes [3]: down-regulation of cell wall hydrolase-encoding genes
stability in the serum and body fluid, such as peritoneal fluid [4]: remain stable
effect on preformed biofilms [5]: did not affect biofilms of MW2ΔSTK1
